Values of other authors as cited in article PMC8513935.

Tests used:
[1] = log P octanol/water from commercial databases, averaged (the ESI); conditions: Octanol (wet), 25 C
[2] = experimental, compiled by the authors from the literature (the ESI cites the sources)
[3] = derived by the authors as gas->solvent minus gas->water (a hypothetical dry solvent; the ESI), not a two-phase measurement

For CC(C)=O, which log K of transfer, water to solvent [1] is on record?
The log K of transfer, water to solvent was -0.24 log10 K.

And the log K of transfer, gas to solvent ([2]; 1,2-Dichloroethane, 25 C)?
The log K of transfer, gas to solvent was 3.13 log10 K.

And the log K of transfer, gas to solvent ([2]; Acetonitrile, 25 C)?
The log K of transfer, gas to solvent was 3.14 log10 K.

What about the log K of transfer, gas to solvent ([2]; Benzene, 25 C) of the same compound?
Its log K of transfer, gas to solvent is 2.78 log10 K.

What about the log K of transfer, gas to solvent ([2]; Butan-1-ol, 25 C) of the same compound?
Its log K of transfer, gas to solvent is 2.57 log10 K.

And the log K of transfer, gas to solvent ([2]; Butanone, 25 C)?
Its log K of transfer, gas to solvent is 2.92 log10 K.

And the log K of transfer, gas to solvent ([2]; CCl4, 25 C)?
The log K of transfer, gas to solvent was 2.38 log10 K.

What about the log K of transfer, gas to solvent ([2]; Chlorobenzene, 25 C) of the same compound?
Its log K of transfer, gas to solvent is 2.66 log10 K.

What about the log K of transfer, gas to solvent ([2]; Chloroform, 25 C) of the same compound?
Its log K of transfer, gas to solvent is 3.29 log10 K.

What about the log K of transfer, gas to solvent ([2]; Cyclohexane, 25 C) of the same compound?
Its log K of transfer, gas to solvent is 1.88 log10 K.

What about the log K of transfer, gas to solvent ([2]; Cyclohexanone, 25 C) of the same compound?
Its log K of transfer, gas to solvent is 2.79 log10 K.

And the log K of transfer, gas to solvent ([2]; Di-n-butyl ether, 25 C)?
Its log K of transfer, gas to solvent is 2.25 log10 K.

And the log K of transfer, gas to solvent ([2]; Dichloromethane, 25 C)?
The log K of transfer, gas to solvent was 3.39 log10 K.

And the log K of transfer, gas to solvent ([2]; Diethyl Ether, 25 C)?
Its log K of transfer, gas to solvent is 2.57 log10 K.

And the log K of transfer, gas to solvent ([2]; Ethanol, 25 C)?
Its log K of transfer, gas to solvent is 2.77 log10 K.

And the log K of transfer, gas to solvent ([2]; Hexadecane, 25 C)?
Its log K of transfer, gas to solvent is 1.7 log10 K.

And the log K of transfer, gas to solvent ([2]; Hexane, 25 C)?
The log K of transfer, gas to solvent was 1.96 log10 K.

And the log K of transfer, gas to solvent ([2]; Methanol, 25 C)?
The log K of transfer, gas to solvent was 2.89 log10 K.

And the log K of transfer, gas to solvent ([2]; Octan-1-ol, 25 C)?
Its log K of transfer, gas to solvent is 2.31 log10 K.

What about the log K of transfer, gas to solvent ([2]; Pentan-1-ol, 25 C) of the same compound?
Its log K of transfer, gas to solvent is 2.49 log10 K.

And the log K of transfer, gas to solvent ([2]; Propan-2-ol, 25 C)?
Its log K of transfer, gas to solvent is 2.46 log10 K.

And the log K of transfer, gas to solvent ([2]; Propanone, 25 C)?
Its log K of transfer, gas to solvent is 3.04 log10 K.

What about the log K of transfer, gas to solvent ([2]; Tetrahydrofuran, 25 C) of the same compound?
Its log K of transfer, gas to solvent is 2.85 log10 K.

And the log K of transfer, gas to solvent ([2]; Toluene, 25 C)?
Its log K of transfer, gas to solvent is 2.63 log10 K.

And the log K of transfer, gas to solvent ([2]; Water, 25 C)?
Its log K of transfer, gas to solvent is 2.83 log10 K.

And the log K of transfer, water to solvent ([3]; 1,2-Dichloroethane, 25 C)?
The log K of transfer, water to solvent was 0.3 log10 K.

What about the log K of transfer, water to solvent ([3]; Acetone, 25 C) of the same compound?
Its log K of transfer, water to solvent is 0.21 log10 K.

And the log K of transfer, water to solvent ([3]; Acetonitrile, 25 C)?
The log K of transfer, water to solvent was 0.31 log10 K.

And the log K of transfer, water to solvent ([3]; Benzene, 25 C)?
Its log K of transfer, water to solvent is -0.05 log10 K.

And the log K of transfer, water to solvent ([3]; Butan-1-ol, 25 C)?
The log K of transfer, water to solvent was -0.26 log10 K.

And the log K of transfer, water to solvent ([3]; Butanone, 25 C)?
Its log K of transfer, water to solvent is 0.09 log10 K.

What about the log K of transfer, water to solvent ([3]; CCl4, 25 C) of the same compound?
The log K of transfer, water to solvent was -0.45 log10 K.

And the log K of transfer, water to solvent ([3]; Chlorobenzene, 25 C)?
The log K of transfer, water to solvent was -0.17 log10 K.

And the log K of transfer, water to solvent ([3]; Chloroform, 25 C)?
Its log K of transfer, water to solvent is 0.46 log10 K.

What about the log K of transfer, water to solvent ([3]; Cyclohexane, 25 C) of the same compound?
The log K of transfer, water to solvent was -0.948 log10 K.

What about the log K of transfer, water to solvent ([3]; Cyclohexanone, 25 C) of the same compound?
The log K of transfer, water to solvent was -0.041 log10 K.

And the log K of transfer, water to solvent ([3]; Di-n-butyl ether, 25 C)?
The log K of transfer, water to solvent was -0.58 log10 K.

And the log K of transfer, water to solvent ([3]; Dichloromethane, 25 C)?
Its log K of transfer, water to solvent is 0.56 log10 K.

And the log K of transfer, water to solvent ([3]; Diethyl Ether, 25 C)?
The log K of transfer, water to solvent was -0.26 log10 K.

And the log K of transfer, water to solvent ([3]; Ethanol, 25 C)?
Its log K of transfer, water to solvent is -0.06 log10 K.

What about the log K of transfer, water to solvent ([3]; Hexadecane, 25 C) of the same compound?
Its log K of transfer, water to solvent is -1.13 log10 K.

What about the log K of transfer, water to solvent ([3]; Hexane, 25 C) of the same compound?
The log K of transfer, water to solvent was -0.867 log10 K.

What about the log K of transfer, water to solvent ([3]; Methanol, 25 C) of the same compound?
Its log K of transfer, water to solvent is 0.06 log10 K.

And the log K of transfer, water to solvent ([3]; Octan-1-ol(dry), 25 C)?
The log K of transfer, water to solvent was -0.52 log10 K.

What about the log K of transfer, water to solvent ([3]; Pentan-1-ol, 25 C) of the same compound?
The log K of transfer, water to solvent was -0.34 log10 K.

What about the log K of transfer, water to solvent ([3]; Propan-2-ol, 25 C) of the same compound?
The log K of transfer, water to solvent was -0.37 log10 K.

What about the log K of transfer, water to solvent ([3]; Tetrahydrofuran, 25 C) of the same compound?
Its log K of transfer, water to solvent is 0.02 log10 K.

And the log K of transfer, water to solvent ([3]; Toluene, 25 C)?
Its log K of transfer, water to solvent is -0.2 log10 K.

Which results are given for CC1CCCC1?
log K of transfer, water to solvent [1]: 3.37 log10 K; log K of transfer, gas to solvent ([2]; Heptan-1-ol, 25 C): 2.57 log10 K; log K of transfer, gas to solvent ([2]; Hexadecane, 25 C): 2.91 log10 K; log K of transfer, gas to solvent ([2]; Pentan-1-ol, 25 C): 2.57 log10 K; log K of transfer, gas to solvent ([2]; Water, 25 C): -1.17 log10 K; log K of transfer, water to solvent ([3]; Heptan-1-ol, 25 C): 3.74 log10 K; log K of transfer, water to solvent ([3]; Hexadecane, 25 C): 4.07 log10 K; log K of transfer, water to solvent ([3]; Pentan-1-ol, 25 C): 3.74 log10 K

What does the source list for CCCCCCCCC?
log K of transfer, water to solvent [1]: 5.65 log10 K; log K of transfer, gas to solvent ([2]; 1,2-Dichloroethane, 25 C): 3.89 log10 K; log K of transfer, gas to solvent ([2]; Acetonitrile, 25 C): 3 log10 K; log K of transfer, gas to solvent ([2]; Butanone, 25 C): 3.9 log10 K; log K of transfer, gas to solvent ([2]; Butyronitrile, 25 C): 3.63 log10 K; log K of transfer, gas to solvent ([2]; CCl4, 25 C): 4.55 log10 K; log K of transfer, gas to solvent ([2]; Chlorobenzene, 25 C): 4.52 log10 K; log K of transfer, gas to solvent ([2]; Chloroform, 25 C): 4.42 log10 K; log K of transfer, gas to solvent ([2]; Cyclohexanone, 25 C): 3.84 log10 K; log K of transfer, gas to solvent ([2]; Dichloromethane, 25 C): 4.21 log10 K; log K of transfer, gas to solvent ([2]; Ethanol, 25 C): 3.52 log10 K; log K of transfer, gas to solvent ([2]; Hexadecane, 25 C): 4.18 log10 K; log K of transfer, gas to solvent ([2]; Hexane, 25 C): 4.51 log10 K; log K of transfer, gas to solvent ([2]; Methanol, 25 C): 3.23 log10 K; log K of transfer, gas to solvent ([2]; Perfluoroalkane, 25 C): 2.87 log10 K; log K of transfer, gas to solvent ([2]; Propan-1-ol, 25 C): 3.55 log10 K; log K of transfer, gas to solvent ([2]; Propan-2-ol, 25 C): 3.63 log10 K; log K of transfer, gas to solvent ([2]; Propanone, 25 C): 3.66 log10 K; log K of transfer, gas to solvent ([2]; Propionitrile, 25 C): 3.42 log10 K; log K of transfer, gas to solvent ([2]; Tetrahydrofuran, 25 C): 4.34 log10 K; log K of transfer, gas to solvent ([2]; Toluene, 25 C): 4.34 log10 K; log K of transfer, gas to solvent ([2]; Water, 25 C): -2.15 log10 K; log K of transfer, water to solvent ([3]; 1,2-Dichloroethane, 25 C): 6.04 log10 K; log K of transfer, water to solvent ([3]; Acetone, 25 C): 5.81 log10 K; log K of transfer, water to solvent ([3]; Acetonitrile, 25 C): 5.15 log10 K; log K of transfer, water to solvent ([3]; Butanone, 25 C): 6.05 log10 K; log K of transfer, water to solvent ([3]; Butyronitrile, 25 C): 5.78 log10 K; log K of transfer, water to solvent ([3]; CCl4, 25 C): 6.7 log10 K; log K of transfer, water to solvent ([3]; Chlorobenzene, 25 C): 6.67 log10 K; log K of transfer, water to solvent ([3]; Chloroform, 25 C): 6.57 log10 K; log K of transfer, water to solvent ([3]; Cyclohexanone, 25 C): 5.99 log10 K; log K of transfer, water to solvent ([3]; Dichloromethane, 25 C): 6.36 log10 K; log K of transfer, water to solvent ([3]; Ethanol, 25 C): 5.67 log10 K; log K of transfer, water to solvent ([3]; Hexadecane, 25 C): 6.33 log10 K; log K of transfer, water to solvent ([3]; Hexane, 25 C): 6.66 log10 K; log K of transfer, water to solvent ([3]; Methanol, 25 C): 5.38 log10 K; log K of transfer, water to solvent ([3]; Perfluoroalkane, 25 C): 5.02 log10 K; log K of transfer, water to solvent ([3]; Propan-1-ol, 25 C): 5.7 log10 K; log K of transfer, water to solvent ([3]; Propan-2-ol, 25 C): 5.78 log10 K; log K of transfer, water to solvent ([3]; Propionitrile, 25 C): 5.57 log10 K; log K of transfer, water to solvent ([3]; Tetrahydrofuran, 25 C): 6.49 log10 K; log K of transfer, water to solvent ([3]; Toluene, 25 C): 6.49 log10 K
